Laboratory results: PubChem BioAssay AID2305 (GlaxoSmithKline (GSK), 2010)

test system: P. falciparum 3D7 growth, pLDH absorbance; assay: P. falciparum 3D7 growth inhibition, dose response, strain 3D7 (AID 2305)

Row | Structure (SMILES) | IC50 [nM]
1 | CS(=O)(=O)NCCCNCc1cccc(-c2ccc(-c3nc4ccccc4[nH]3)s2)c1 | 1080
2 | COc1ccc2nccc([C@@H](O)CN3CCC(NCc4ccc5sc(=O)[nH]c5c4)CC3)c2c1 | 290
3 | O=[N+]([O-])c1cc(/C=N/Nc2nc3ccccc3[nH]2)ccc1O | 950
4 | CC(C)(CNC(=O)C1CCN(CC2CCCCC2)CC1)c1nc(-c2ccc(Cl)c(O)c2)c(-c2ccncc2)[nH]1 | 890
5 | CN(C)c1ccc(C=C2SC(=Nc3ccccc3)N(c3ccccc3)C2=O)cc1[N+](=O)[O-] | 780
6 | O=C(/C=C/c1ccc(Cl)c(Cl)c1)N1CCC(CCN2CCC(c3nc4ccc(O)cc4[nH]3)CC2)CC1 | 340
7 | CCCC(C)NC(=O)/C=C/c1ccccc1-c1cccc(OC)c1 (stereo not drawn) | 1250
8 | NCc1ccc(Nc2nccc(Nc3ccc(-c4ccccc4)cc3)n2)cc1 | 890
9 | CCOC(=O)c1ccc(NC(=O)Nc2cccc(-c3cccc(-c4nc5ccc(F)cc5[nH]4)c3)c2)cc1 | 90
10 | C=CC[C@H](C[C@H](O)[C@H](Cc1ccccc1)NC(=O)c1nn(-c2ccccc2)nc1C)C(=O)NC1CCCCC1 | 920
11 | N#Cc1ccc(N2CCN(Cc3cccc(-c4ccc(-c5nc6ccc(C(F)(F)F)cc6[nH]5)cc4)c3)CC2)nc1 | 700
12 | COc1ccc2nccc(N3CCC(O)(CCNCc4ccc5c(n4)NC(=O)CO5)CC3)c2n1 | 820
13 | CCCC(=O)c1cnc2c(OCCCc3cnc[nH]3)cccc2c1Nc1c(C)cccc1C | 340
14 | NCCCNc1nc(Nc2cccc(C(N)=O)c2)c2c(=O)[nH]ccc2n1 | 590
15 | Cc1cc(-c2ccc(CNCc3ccsc3)cc2)ccc1S(=O)(=O)NCCN1CCCC1 | 720
16 | CC(=O)Nc1ccc2[nH]cc(C3CCN(CC4CCC(NC(=O)/C=C/c5ccc(Cl)c(Cl)c5)CC4)CC3)c2n1 (stereo not drawn) | 260
17 | Fc1cccc(COc2ccc(Nc3ncnc4sc(C#C[C@H]5CC[C@H](CN6CCOCC6)N5)cc34)cc2Cl)c1 | 920
18 | COc1ccccc1C(=O)N1CCN(Cc2cccs2)CC1 | 870
19 | NC1=NC2(CCCCC2)N(OCCCCCCc2ccccc2)C(N)=N1 | 350

Row | Structure (SMILES) | IC50 [nM]
20 | CO/C(=C\C=C\c1cc2cc(Cl)c(Cl)cc2[nH]1)C(=O)NCCCN1CCCC[C@H]1C | 790
21 | CCCCCSc1cc(O)c(C(CNC)C(C)C)cc1OC (stereo not drawn) | 160
22 | CN(C(=O)/C=C/c1c(Cl)cccc1Cl)C1CCN(CCCCCNC(=O)/C=C/c2ccc(Cl)c(Cl)c2)CC1 | 360
23 | CC1(CCc2ccccc2)N=C(Nc2ccc(Cl)cc2)N=C(N)C1c1ccc(Cl)c(Cl)c1 (stereo not drawn) | 220
24 | COc1cc(NC(=O)N2CCOC(CCN3CCC(c4ccccc4)CC3)(c3ccc(Cl)c(Cl)c3)C2)cc(OC)c1OC (stereo not drawn) | 70
25 | O=C(Nc1ccc(-c2cccc(CN3CCC(O)CC3)c2)cc1)c1cccc(Cl)c1 | 830
26 | c1ccc(CNCCn2c(-c3ccc4c(c3)CCO4)nc3c(N4CCCC4)cccc32)cc1 | 1130
27 | CCN(CC)CCNc1c2ccc(Cl)cc2nc2ccc(OC)nc12 | 740
28 | COc1ccc(C=CC(=O)N2CCC(CN3CCC(c4c[nH]c5ccccc45)CC3)CC2)cc1OC | 1070
29 | COc1ccc(NC(=O)c2ccc3cc4ccccc4cc3c2)cc1N1CCN(C)CC1 | 1030
30 | CCN1CCN(c2cc(C)c3cc(NC(=O)c4ccc([N+](=O)[O-])c(C)c4)ccc3n2)CC1 | 650
31 | Cc1cccc2[nH]c(-c3ccc(-c4ccc(C(=O)NCCN5CCCC5)cc4)cc3)nc12 | 520
32 | CCNC(=O)Nc1ccc(N(C)c2ccnc(Nc3ccc(CS(C)(=O)=O)cc3)n2)cc1 | 90
33 | Cc1ccc(O)cc1Nc1ccnc2ccc(-c3csc(CNCCN4CCOCC4)n3)cc12 | 150
34 | CCN1CCC(N(Cc2ccc(-c3ccc(C(F)(F)F)cc3)cc2)C(=O)Cn2c(SCc3ccc(F)cc3)nc(=O)c3c2CCC3)CC1 | 990
35 | Cc1cc(NCCC(=O)Nc2ccccc2)nc(NCCOc2ccccc2)n1 | 1140
36 | C[C@@H](CC1CCCCC1)OC(=O)N(C)[C@H]1CCN(C#N)C1 | 220
37 | O=C(Nc1ccc(CN2CCN(S(=O)(=O)c3ccc(Cl)s3)CC2)cc1)c1cccs1 | 890
38 | CN(C)c1cccc2c1nc(-c1ccco1)n2CC1CCCN1 (stereo not drawn) | 970
